Patent US20040191763A1, “HBV mutations associated with reduced susceptibility to adefovir” (priority 2002, published 2004)
Where two headings read alike, the source gives them in different places.

What was measured:
[1] = system: serum HBV DNA; test: Phase 3 clinical study GS-98-438, HBeAg negative chronic hepatitis B patients; assay type: in vivo, human
Procedure: The median serum HBV DNA levels declined by 3.5 and 3.9 log10 copies/mL from baseline to week 48 in the ADV 10 mg dose groups in HBeAg positive (Study GS-98-437) and in HBeAg negative (Study GS-98-438) chronic hepatitis B patients, respectively.
Adefovir resistance surveillance was performed in a blinded manner in HBeAg negative chronic hepatitis B patients treated for 96 weeks in a Phase 3 double-blind, randomized, placebo-controlled clinical study (GS-98-438) of adefovir dipivoxil 10 mg (ADV). The analysis included 79 patients who received ADV 10 mg daily for the first 48 weeks and were randomized to also receive ADV 10 mg during the second 48 weeks.
The reverse transcriptase (RT) domain of the HBV polymerase gene (rt1 to rt344) was sequenced for HBV DNA extracted from baseline and week 96 serum samples (or the last on-study sample) for the 79 patients treated continuously with ADV for 96 weeks if the samples had detectable serum HBV DNA (≧1000 copies/mL by Roche Amplicor™ PCR assay) at the time points tested.
Study GS-98-438 is a randomized, double-blind, placebo-controlled Phase 3 clinical study of the safety and efficacy of ADV for the treatment of patients with HBeAg negative/anti-HBe positive/HBV DNA positive chronic hepatitis B. A total of 184 patients received at least one dose of study medication during the first 48 weeks (n=61 and 123 for the placebo and ADV 10 mg groups, respectively). During the second 48 weeks, all placebo patients switched to ADV 10 mg daily while the ADV-treated patients were re-randomized to either continue ADV or receive placebo at a 2:1 ratio. Accordingly, all patients who received at least one dose of study drug during the second 48 weeks are classified into three groups: PLB-ADV (n=60), ADV-ADV (n=79), and ADV-PLB (n=40).
A virology substudy of Study GS-98-438 included all patients in the ADV 10 mg-ADV 10 mg group (n=79). The RT domain of the HBV polymerase gene from banked serum samples from these patients was genotypically analyzed at baseline, and either at week 96, or upon early termination during the second 48 weeks.
If the week 96 serum HBV DNA value was not available for a patient, the closest serum HBV DNA value prior to week 96 was used. All week 96 and the last on-drug samples are referred to as week 96 samples hereafter. Note that Roche Molecular Systems raised the lower limit of quantification of the HBV DNA PCR assay from 400 copies/mL to 1,000 copies/mL after Gilead completed the week 48 analyses for study 438.

[2] = system: serum HBV DNA; conditions: ADV 10 mg daily, HBeAg positive patients; cited from earlier work
[3] = system: serum HBV DNA; conditions: ADV 10 mg daily, HBeAg negative patients; cited from earlier work
[4] = system: wild-type lab HBV strain (ayw); test: Adefovir susceptibility of standard HBV lab strain, wild-type; assay type: cell-based, hepatitis B virus
Source text: (§1) One patient (0454-2506) with the rtN236T mutation also developed a second conserved site mutation rtA181T at week 96. However, all week 96 isolates derived from the patient encoding both rtN236T and rtA181T were replication deficient in vitro; the reason for this is unclear. To assess the adefovir sensitivity of HBV containing both rtN236T and rtA181Tmutations, an artificial construct was obtained by modifying an existing patient-derived HBV clone. The rtA181T mutation was introduced by site-directed mutagenesis into replicating HBV clones from patient 0454-2506 that already encoded rtN236T. The resulting double mutants were replication competent and were used for adefovir susceptibility testing. […] The rtA181T mutation was also introduced into a standard HBV lab strain (genotyped, ayw) to assess the individual contribution of the rtA181T mutation.

[5] = system: rtN236T+rtA181T double mutant HBV; test: Adefovir susceptibility of rtN236T+rtA181T double mutant made by site-directed mutagenesis of patient-derived clone; assay type: cell-based, hepatitis B virus
Source text: as §1

[6] = system: rtA181V mutant HBV; test: Whole HBV genome cell culture drug susceptibility assay, rtA181V patient-derived clones; assay type: cell-based, hepatitis B virus; conditions: for IC50: Hepatitis B virus, HepG2, 168 h, HepG2, 7 days; for IC50 Fold Change (Week96/Baseline): adefovir
Source text: . The rtA181V mutation appears to confer a low degree of reduced susceptibility to adefovir relative to the adefovir-resistant rtN236T mutation (7- to 14-fold resistance to adefovir in vitro). […] In contrast, serum HBV DNA in the other patient (0624-1517) remained suppressed below 1000 copies/mL after a period of treatment interruption during which this mutation was detected (FIG. 2). […] The clinical significance of the rtA181V mutation is unclear based on the in vitro drug susceptibility data and the disparate clinical profiles of the two patients, although as noted it would have diagnostic utility for HBV infection.

[7] = system: rtN236T mutant HBV; test: Whole HBV genome cell culture drug susceptibility assay, rtN236T patient-derived clones; assay type: cell-based, hepatitis B virus; conditions: for IC50 Fold Change (Week96/Baseline): adefovir; for susceptibility of the rtN236T mutant (in words): in vitro
[8] = system: rtA181T mutant lab HBV strain (ayw); test: Adefovir susceptibility of standard HBV lab strain carrying rtA181T; assay type: cell-based, hepatitis B virus
Source text: as §1

[9] = system: rtK241E+rtK318Q mutant HBV; test: Whole HBV genome cell culture drug susceptibility assay, rtK241E+rtK318Q patient-derived clones; conditions: adefovir, patient 0370-3503, rtK241E + rtK318Q
Procedure: Drug susceptibility of patient-derived clones was analyzed by transient transfection into HepG2 cells.
To investigate if these conserved site mutations conferred resistance to adefovir, adefovir susceptibility of HBV isolates derived from the above five patients was evaluated using a whole HBV genome cell culture assay as described above.

[10] = system: wild-type HBV (baseline patient-derived clones); test: Whole HBV genome cell culture drug susceptibility assay, baseline wild-type patient-derived clones; assay type: cell-based, hepatitis B virus
[11] = biological target: recombinant HBV polymerase (Hepatitis B virus genotype D subtype ayw, UniProt P03156); conditions: competitive with respect to dATP; read-out: inhibition constant (Ki); cited from earlier work
recombinant HBV polymerase, sequence (P03156 whole entry): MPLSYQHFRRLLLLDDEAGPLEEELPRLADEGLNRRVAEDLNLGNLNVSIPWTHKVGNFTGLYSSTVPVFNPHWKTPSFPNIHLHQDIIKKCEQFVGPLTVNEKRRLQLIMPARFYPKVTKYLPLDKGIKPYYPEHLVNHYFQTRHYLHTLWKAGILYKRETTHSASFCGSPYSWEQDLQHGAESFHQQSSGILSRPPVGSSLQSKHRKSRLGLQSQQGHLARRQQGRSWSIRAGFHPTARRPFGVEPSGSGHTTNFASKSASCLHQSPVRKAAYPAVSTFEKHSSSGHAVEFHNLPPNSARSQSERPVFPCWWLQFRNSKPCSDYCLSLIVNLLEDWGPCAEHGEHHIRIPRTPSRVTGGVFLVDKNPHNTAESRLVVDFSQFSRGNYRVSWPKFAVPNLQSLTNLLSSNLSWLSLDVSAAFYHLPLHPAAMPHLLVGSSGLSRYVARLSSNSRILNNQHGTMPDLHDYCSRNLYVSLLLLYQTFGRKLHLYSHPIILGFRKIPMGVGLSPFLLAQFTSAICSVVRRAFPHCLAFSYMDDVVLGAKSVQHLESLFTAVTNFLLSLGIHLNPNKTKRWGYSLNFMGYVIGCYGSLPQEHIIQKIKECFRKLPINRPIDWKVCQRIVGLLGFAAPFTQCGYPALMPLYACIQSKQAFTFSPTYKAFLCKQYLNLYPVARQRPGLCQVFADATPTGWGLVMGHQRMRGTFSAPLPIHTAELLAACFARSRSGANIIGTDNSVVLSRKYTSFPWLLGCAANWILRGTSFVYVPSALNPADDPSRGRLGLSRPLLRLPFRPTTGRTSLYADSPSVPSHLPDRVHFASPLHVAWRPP

[12] = Hepatitis B virus, read-out: IC50 rtN23T Mutant, patient-derived HBV strain carrying rtN236T (Table 7)
[13] = patient-derived HBV strain carrying rtN236T (Table 7)
[14] = Hepatitis B virus, read-out: IC50 Wild-type, patient-derived HBV strain, wild-type (Table 7)
[15] = patient-derived HBV strain carrying rtN236T (Table 7), read-out: IC50 rtN23T Mutant
[16] = patient-derived HBV strain, wild-type (Table 7), read-out: IC50 Wild-type

## CC(C)(C)C(=O)OCOP(=O)(COCCn1cnc2c(N)ncnc21)OCOC(=O)C(C)(C)C [ADV, adefovir dipivoxil]
[1]; both patients who developed rtN236T (0626-1537, 0454-2506)
  serum HBV reduction from baseline after initiation of therapy: less than 2 log10 copies/mL
[1]; of 79 patients, ADV 10 mg daily for 96 weeks
  patients with serum HBV DNA levels <1000 copies/mL at week 96 (or last on-study visit): 58 patients
[1]; patient 0370-3503 (rtK241E+rtK318Q), week 96
  reduction in serum HBV DNA: > 5 log10
[1]; patient 0370-3503, week 96
  serum HBV DNA: 3.1 log10 copies/mL
[1]; patient 0370-3503, week 156
  serum HBV DNA: 3.6 log10 copies/mL
[2]
  median serum HBV DNA decline from baseline to week 48: 3.5 log10 copies/mL
[3]
  median serum HBV DNA decline from baseline to week 48: 3.9 log10 copies/mL

## Nc1ncnc2c1ncn2CCOCP(=O)(O)O [Adefovir, adefovir]
[4]; Hepatitis B virus, lab HBV strain, wild-type
  IC50: 190 ± 30 nM
[4]; adefovir, lab HBV strain wild-type, reference
  IC50 Fold Change from Wild-Type: 1 fold
[5]; Hepatitis B virus, patient 0454-2506 derived clone, rtN236T + rtA181T (rtA181T introduced by site-directed mutagenesis)
  IC50: 530 ± 260 nM
[5]; adefovir, patient 0454-2506 derived, rtN236T + rtA181T
  IC50 Fold Change from Wild-Type: 2.5 fold
[6]; read-out: Adefovir IC50 Week 96, patient 0624-1517, week 96 rtA181V clones
  IC50: 520 ± 110 nM
[6]; read-out: Adefovir IC50 Week 96, patient 0624-1564, week 96 rtA181V clones
  IC50: 620 ± 290 nM
[6]; patient 0624-1517, rtA181V
  IC50 Fold Change (Week96/Baseline): 2.5 fold
[6]; patient 0624-1564, rtA181V
  IC50 Fold Change (Week96/Baseline): 3.0 fold
[7]; Hepatitis B virus, HepG2, 168 h, read-out: Adefovir IC50 Week 96, patient 0454-2506, week 96 clones with single rtN236T, HepG2, 7 days
  IC50: 1550 ± 910 nM
[7]; Hepatitis B virus, HepG2, 168 h, read-out: Adefovir IC50 Week 96, patient 0626-1537, week 96 rtN236T clones, HepG2, 7 days
  IC50: 3640 ± 2780 nM
[7]; [12]
  IC50: 1470 nM
[7]; patient 0454-2506, single rtN236T
  IC50 Fold Change (Week96/Baseline): 7.3 fold
[7]; patient 0626-1537, rtN236T
  IC50 Fold Change (Week96/Baseline): 13.8 fold
[7]; [13]
  IC50 Fold Change (rtN236T/Wild-type): 9.6 fold
[8]; Hepatitis B virus
  IC50: 240 ± 30 nM
[8]; adefovir
  IC50 Fold Change from Wild-Type: 1.3 fold
[9]
  IC50 Fold Change (Week96/Baseline): 0.9 fold
[9]; listed as adefovir
  IC50 Fold Change (Week96/Baseline): less than 0.9 fold
[10]; Hepatitis B virus, HepG2, 168 h, read-out: Adefovir IC50 Baseline, patient 0370-3503, baseline clones, HepG2, 7 days
  IC50: 160 ± 10 nM
[10]; Hepatitis B virus, HepG2, 168 h, read-out: Adefovir IC50 Baseline, patient 0454-2506, baseline wild-type clones, HepG2, 7 days
  IC50: 210 ± 10 nM
[10]; Hepatitis B virus, HepG2, 168 h, read-out: Adefovir IC50 Baseline, patient 0624-1517, baseline clones, HepG2, 7 days
  IC50: 210 ± 70 nM
[10]; Hepatitis B virus, HepG2, 168 h, read-out: Adefovir IC50 Baseline, patient 0624-1564, baseline clones, HepG2, 7 days
  IC50: 210 ± 10 nM
[10]; Hepatitis B virus, HepG2, 168 h, read-out: Adefovir IC50 Baseline, patient 0626-1537, baseline clones, HepG2 transient transfection, 7 days
  IC50: 260 ± 170 nM
[10]; [14]
  IC50: 150 nM
[10]; adefovir, patient 0454-2506 wild-type (baseline), reference
  IC50 Fold Change from Wild-Type: 1 fold

## C=C1[C@H](CO)[C@@H](O)C[C@@H]1n1cnc2c(=O)[nH]c(N)nc21 [Entecavir, entecavir]
[7]; [12]
  IC50: 0.26 nM
[7]
  susceptibility of the rtN236T mutant (in words): remained susceptible
[7]; [13]
  IC50 Fold Change (rtN236T/Wild-type): 0.67 fold
[10]; [14]
  IC50: 0.39 nM

## Cc1cn([C@@H]2C[C@@H](O)[C@H](CO)O2)c(=O)[nH]c1=O [L-dT]
[7]
  susceptibility of the rtN236T mutant (in words): remained susceptible
[7]; [13]
  IC50 Fold Change (rtN236T/Wild-type): 2.4 fold
[7]; [15]
  IC50: 330 nM
[10]; [16]
  IC50: 140 nM

## Nc1ccn([C@@H]2CS[C@H](CO)O2)c(=O)n1 [Lamivudine, lamivudine]
[7]; [12]
  IC50: 70 nM
[7]; Hepatitis B virus, read-out: Lamivudine IC50 Week 96, patient 0454-2506, week 96 clones with single rtN236T
  IC50: 70 nM
[7]; rtN236T mutant in vitro
  lamivudine IC50 change: ≤ 3.5 fold

## COc1ccc(Sc2nc(N)nc3c2ncn3CCOCP(=O)(OCC(F)(F)F)OCC(F)(F)F)cc1 [MCC-478]
[7]; [12]
  IC50: 250 nM
[7]; [13]
  IC50 Fold Change (rtN236T/Wild-type): 8.6 fold
[10]; [14]
  IC50: 30 nM

## C[C@H](Cn1cnc2c(N)ncnc21)OCP(=O)(O)O [Tenofovir, tenofovir]
[7]; [13]
  IC50 Fold Change (rtN236T/Wild-type): 4.2 fold
[7]; [15]
  IC50: 550 nM
[10]; [16]
  IC50: 130 nM

## Nc1ncnc2c1ncn2CCOCP(=O)(O)OP(=O)(O)OP(=O)(O)O [adefovir diphosphate]
[11]
  Ki: 100 nM
